Data reported in patent US8546389B2 (priority 2010, dated 2013).
Like-named read-outs stand apart in the source and are kept apart here.

Key:
[1] = system: genotype 1b (Con 1) subgenomic replicon cell line; assay: HCV replicon assay, genotype 1b (Renilla luciferase); format: cell-based, HCV genotype 1b (Con 1); settings: Hepatitis C virus, genotype 1b replicon
Procedure, shortened: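 Subgenomic replicon cells expressing Renilla luciferase (1b Con1; 1a and 2a lines by the same method) seeded at 7000 cells/well (5000 for 2a) without G418, exposed to 3-fold compound dilutions for 72 h at 37 °C. Luciferase activity measured; EC50 by non-linear regression.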

[2] = system: subgenomic genotype 1a replicon cell line; assay: HCV replicon assay, genotype 1a; format: cell-based, HCV genotype 1a; settings: Hepatitis C virus
Experimental: (§1) A genotype 1b (Con 1) subgenomic replicon cell line based on Blight et al., Science 2000 290: 1972-1974, modified to express a Renilla luciferase reporter gene was used to assess antiviral activity of test compounds. Cell cultures were maintained in a sub-confluent state in DMEM with glutamine, 10% heat-inactivated foetal bovine serum (FBS) and G418 (Geneticin®).
(§2) For assay, cells were seeded at a density of 7000 cells/well into 96 well tissue culture trays in culture media lacking G418. Compounds were tested in a three fold dilution series, for example starting from 50 uM. After 72 hours incubation at 37° C. and 5% CO2, Renilla luciferase activity was quantified via the Promega Renilla Luciferase or Renilla-Glo™ Luciferase Assay Systems (Promega corporation. The same method was employed for replicon assays using subgenomic genotype 1a and 2a replicon cell lines with a seeding cell density of 5000 cells/well for the 2a cell lines.
(§3) The compound concentration that reduced luciferase activity by 50% (EC50) was calculated using non-linear regression.

[3] = target: genotype 3a (VRL-69) NS5bΔ21 polymerase (Hepatitis C virus genotype 3a, UniProt Q81258); assay: HCV polymerase inhibition assay, genotype 3a; format: biochemical, HCV genotype 3a (VRL-69); settings: genotype 3a; read-out: 3a NS5b polymerase IC50
Sequence of genotype 3a (VRL-69) NS5bΔ21 polymerase (Q81258 whole entry, looked up, stated change not applied): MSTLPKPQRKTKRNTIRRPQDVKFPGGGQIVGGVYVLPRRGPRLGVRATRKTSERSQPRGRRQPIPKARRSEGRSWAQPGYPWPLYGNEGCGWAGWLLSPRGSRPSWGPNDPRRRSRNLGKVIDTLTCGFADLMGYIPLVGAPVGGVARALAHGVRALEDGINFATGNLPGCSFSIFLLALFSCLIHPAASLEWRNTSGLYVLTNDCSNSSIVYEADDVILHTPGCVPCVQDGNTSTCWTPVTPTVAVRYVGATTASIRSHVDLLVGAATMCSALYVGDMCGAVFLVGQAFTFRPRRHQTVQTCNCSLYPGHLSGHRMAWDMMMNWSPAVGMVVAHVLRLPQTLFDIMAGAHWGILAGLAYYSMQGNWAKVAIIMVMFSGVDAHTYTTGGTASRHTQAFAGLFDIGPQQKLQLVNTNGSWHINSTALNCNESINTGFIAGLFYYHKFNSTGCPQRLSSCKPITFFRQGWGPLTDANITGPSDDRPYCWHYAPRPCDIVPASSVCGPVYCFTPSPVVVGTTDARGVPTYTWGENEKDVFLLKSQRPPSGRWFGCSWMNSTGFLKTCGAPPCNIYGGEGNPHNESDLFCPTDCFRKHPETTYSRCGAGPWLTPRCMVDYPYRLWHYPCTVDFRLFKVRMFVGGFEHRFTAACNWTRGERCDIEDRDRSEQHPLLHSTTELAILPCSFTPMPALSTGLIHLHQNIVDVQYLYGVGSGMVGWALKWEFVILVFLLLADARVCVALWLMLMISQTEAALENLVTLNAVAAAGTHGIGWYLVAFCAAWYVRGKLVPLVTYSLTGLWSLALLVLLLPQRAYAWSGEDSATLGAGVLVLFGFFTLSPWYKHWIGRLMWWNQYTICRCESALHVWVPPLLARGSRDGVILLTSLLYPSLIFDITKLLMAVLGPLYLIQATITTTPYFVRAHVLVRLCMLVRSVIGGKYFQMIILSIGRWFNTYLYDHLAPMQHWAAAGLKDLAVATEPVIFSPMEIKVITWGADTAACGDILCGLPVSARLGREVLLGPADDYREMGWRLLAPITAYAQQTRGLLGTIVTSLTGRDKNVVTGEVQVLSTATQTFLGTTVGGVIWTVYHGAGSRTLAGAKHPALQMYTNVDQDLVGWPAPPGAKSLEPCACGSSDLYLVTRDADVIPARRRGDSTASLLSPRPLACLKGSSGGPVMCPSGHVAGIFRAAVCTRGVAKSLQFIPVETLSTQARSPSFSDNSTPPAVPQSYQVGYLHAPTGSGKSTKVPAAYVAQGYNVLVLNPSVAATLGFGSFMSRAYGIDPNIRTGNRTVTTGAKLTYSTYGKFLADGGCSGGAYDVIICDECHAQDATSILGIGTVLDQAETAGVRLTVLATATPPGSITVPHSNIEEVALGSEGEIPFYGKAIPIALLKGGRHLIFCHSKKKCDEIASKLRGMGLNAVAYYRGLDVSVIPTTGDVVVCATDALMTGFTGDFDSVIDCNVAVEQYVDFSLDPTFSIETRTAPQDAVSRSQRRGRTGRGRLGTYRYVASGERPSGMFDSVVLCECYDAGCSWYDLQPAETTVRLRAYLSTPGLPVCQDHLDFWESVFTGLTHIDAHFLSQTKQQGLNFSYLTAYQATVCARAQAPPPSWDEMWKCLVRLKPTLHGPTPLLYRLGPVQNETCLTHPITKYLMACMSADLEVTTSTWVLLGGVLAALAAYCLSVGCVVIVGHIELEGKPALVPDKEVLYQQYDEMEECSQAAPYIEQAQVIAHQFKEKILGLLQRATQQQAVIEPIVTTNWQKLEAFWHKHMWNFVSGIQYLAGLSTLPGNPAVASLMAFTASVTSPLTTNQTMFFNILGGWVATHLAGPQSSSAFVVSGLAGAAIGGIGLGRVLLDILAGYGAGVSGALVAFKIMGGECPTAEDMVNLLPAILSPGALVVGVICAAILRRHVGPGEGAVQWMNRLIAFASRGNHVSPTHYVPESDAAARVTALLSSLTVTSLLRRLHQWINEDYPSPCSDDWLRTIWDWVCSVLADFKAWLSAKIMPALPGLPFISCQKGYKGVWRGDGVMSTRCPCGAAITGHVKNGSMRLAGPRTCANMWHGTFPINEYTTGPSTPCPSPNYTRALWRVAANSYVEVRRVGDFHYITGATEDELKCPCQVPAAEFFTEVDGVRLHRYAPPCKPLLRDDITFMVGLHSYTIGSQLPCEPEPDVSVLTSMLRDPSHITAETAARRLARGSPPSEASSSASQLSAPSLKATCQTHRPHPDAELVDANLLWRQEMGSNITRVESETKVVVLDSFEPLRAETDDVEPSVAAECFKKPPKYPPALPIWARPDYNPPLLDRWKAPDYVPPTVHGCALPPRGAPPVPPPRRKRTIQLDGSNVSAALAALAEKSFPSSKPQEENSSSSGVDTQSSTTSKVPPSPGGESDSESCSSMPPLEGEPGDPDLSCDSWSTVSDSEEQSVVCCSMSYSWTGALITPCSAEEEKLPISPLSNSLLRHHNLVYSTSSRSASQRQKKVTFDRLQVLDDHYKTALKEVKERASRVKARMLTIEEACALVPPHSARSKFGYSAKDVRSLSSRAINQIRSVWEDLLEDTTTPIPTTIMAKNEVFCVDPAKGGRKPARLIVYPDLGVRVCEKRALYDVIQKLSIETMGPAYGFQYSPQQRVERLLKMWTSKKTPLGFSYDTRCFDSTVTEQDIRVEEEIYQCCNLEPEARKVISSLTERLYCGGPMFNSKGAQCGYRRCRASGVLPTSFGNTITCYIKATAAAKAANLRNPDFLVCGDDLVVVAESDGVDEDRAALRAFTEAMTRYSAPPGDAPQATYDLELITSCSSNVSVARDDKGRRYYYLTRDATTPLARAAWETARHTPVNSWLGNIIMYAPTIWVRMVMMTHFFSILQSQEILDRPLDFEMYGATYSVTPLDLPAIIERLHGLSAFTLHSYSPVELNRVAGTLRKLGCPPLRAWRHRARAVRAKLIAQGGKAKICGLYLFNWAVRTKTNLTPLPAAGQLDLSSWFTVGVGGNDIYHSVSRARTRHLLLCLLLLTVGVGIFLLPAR
Experimental: HCV polymerase reactions were carried out using a modified method of Howe et al., Antimicrobial Agents and Chemotherapy 2004 48(12): 4813-4821. Reactions contained a final concentration of, 0.5% DMSO, 50 nM, 1b (BK) NS5bΔ21, 20 mM Tris-HCl pH 7.5, 5 mM MgCl2, 5 mM MnCl2, 3 mM DTT, 0.05% BSA, 0.2 U/μL RNasin, 10 μg/mL Poly(rC) template, GTP (at Km) and 0.05 μCi/μL ^33P-GTP in a total reaction volume of 50 μL. Compounds were tested in a three fold dilution series, for example starting from 50 μM. Reactions were initiated with the addition of GTP and terminated after 1 hour with 50 μL ice cold 0.2 M EDTA. Terminated reactions were transferred to DEAE 96-well filter plates, unincorporated nucleotides washed from the filters and 50 μL scintillation fluid added prior to reading on a scintillation counter. Similarly, a genotype 3a (VRL-69) NS5bΔ21 polymerase enzyme assay was conducted using essentially the same method.
The compound concentration that reduced ^33P-GTP incorporation by 50% (IC50) was calculated using non-linear regression.

1b (BK) NS5bΔ21 = 1b (BK) NS5bΔ21 (Hepatitis C virus genotype 1b (isolate BK) (HCV), UniProt P26663); assay: HCV polymerase inhibition assay, genotype 1b; format: biochemical, HCV genotype 1b (BK)
Sequence of 1b (BK) NS5bΔ21 (P26663 2420-2989): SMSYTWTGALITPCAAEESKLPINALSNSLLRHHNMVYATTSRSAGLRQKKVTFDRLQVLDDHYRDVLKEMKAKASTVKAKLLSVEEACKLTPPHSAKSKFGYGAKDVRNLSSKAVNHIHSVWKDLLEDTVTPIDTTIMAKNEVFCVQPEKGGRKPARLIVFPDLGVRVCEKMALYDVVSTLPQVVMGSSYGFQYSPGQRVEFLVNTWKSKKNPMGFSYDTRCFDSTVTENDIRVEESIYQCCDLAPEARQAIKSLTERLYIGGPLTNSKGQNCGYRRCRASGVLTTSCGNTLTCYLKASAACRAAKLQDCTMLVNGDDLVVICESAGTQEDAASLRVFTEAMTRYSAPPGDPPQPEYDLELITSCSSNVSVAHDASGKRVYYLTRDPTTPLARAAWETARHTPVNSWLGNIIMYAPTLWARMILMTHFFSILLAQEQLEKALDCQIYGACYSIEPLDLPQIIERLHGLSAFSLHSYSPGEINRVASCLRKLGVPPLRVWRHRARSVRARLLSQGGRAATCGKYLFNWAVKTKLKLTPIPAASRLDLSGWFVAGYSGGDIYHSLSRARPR
Procedure, shortened: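 Both genotype 1b and 3a enzymes assayed identically: ^33P-GTP incorporation on poly(rC) template, GTP at Km, 50 nM NS5bΔ21, pH 7.5 Tris with 5 mM MgCl2 and MnCl2, 1 h reaction ended by cold EDTA. Filter-bound label counted; IC50 fitted by non-linear regression across three-fold dilution series.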

[4] = system: subgenomic genotype 2a replicon cell line; assay: HCV replicon assay, genotype 2a; format: cell-based, HCV genotype 2a; settings: Hepatitis C virus
Experimental: as §1, §2, §3

[5] = 72 hours, luciferase, read-out: genotype 1b EC50 (range class)
[6] = 1b (BK) NS5bΔ21, 33P-GTP incorporation, read-out: 1b polymerase IC50 (range class)
[7] = genotype 1b, read-out: 1b NS5b polymerase IC50

SMILES	EC50 [1, 5]	EC50 ([1]; read-out: Replicon 1b EC50)	EC50 [2]	IC50 [3]	IC50 (1b (BK) NS5bΔ21; [6])	IC50 (1b (BK) NS5bΔ21; [7])	EC50 [4]
CNC(=O)c1c2cc(C3CC3)c(N(CCN3CCOCC3)S(C)(=O)=O)cc2nn1-c1ccc(Oc2ccc(F)cc2)cc1 [Compound 112]	< 0.99 µM	0.13 µM	1.9 µM	0.04 µM	< 0.99 µM	0.41 µM	2.73 µM
CCN(c1cc2nn(-c3ccc(NCC(C)C)cc3)c(C(=O)NC)c2cc1C1CC1)S(C)(=O)=O [Compound 117]	< 0.99 µM	0.07 µM	0.34 µM	0.07 µM	< 0.99 µM	0.43 µM	0.15 µM
CNC(=O)c1c2cc(C3CC3)c(N(CCCNC(C)=O)S(C)(=O)=O)cc2nn1-c1ccc(Nc2ccc(F)cc2)cc1 [Compound 119]	< 0.99 µM	0.24 µM	1.2 µM	0.03 µM	< 0.99 µM	0.13 µM	2.7 µM
CNC(=O)c1c2cc(C3CC3)c(N(CCCNC(=O)c3ncoc3C)S(C)(=O)=O)cc2nn1-c1ccc(Br)cc1 [Compound 174]	< 0.99 µM	0.11 µM	0.06 µM	–	< 0.99 µM	–	1.73 µM
CNC(=O)c1c2cc(C3CC3)c(N(CCC3CCOCC3)S(C)(=O)=O)cc2nn1-c1ccc(Cl)cc1 [Compound 250]	< 0.99 µM	–	–	–	< 0.99 µM	–	–
CNC(=O)c1c2cc(C3CC3)c(N(CCCNC(=O)[C@H]3CCCC[C@H]3C(=O)O)S(C)(=O)=O)cc2nn1-c1ccc(Br)cc1 [Compound 251]	< 0.99 µM	–	–	–	< 0.99 µM	–	–
CNC(=O)c1c2cc(C3CC3)c(N(CC3CCOC3)S(C)(=O)=O)cc2nn1-c1ccc(Cl)cc1 (centres unmarked) [Compound 252]	< 0.99 µM	–	–	–	< 0.99 µM	–	–
CNC(=O)c1c2cc(C3CC3)c(N(CC(F)F)S(C)(=O)=O)cc2nn1-c1ccc(Br)cc1 [Compound 253]	< 0.99 µM	–	–	–	< 0.99 µM	–	–
CNC(=O)c1c2cc(C3CC3)c(N(CC(F)F)S(C)(=O)=O)cc2nn1-c1ccc(Cl)cc1 [Compound 254]	< 0.99 µM	–	–	–	< 0.99 µM	–	–
CCN(c1cc2nn(-c3ccc(NC)nc3)c(C(=O)NC)c2cc1C1CC1)S(C)(=O)=O [Compound 255]	< 0.99 µM	–	–	–	< 0.99 µM	–	–
CNC(=O)c1c2cc(C3CC3)c(N(CCC3CCOC3)S(C)(=O)=O)cc2nn1-c1ccc(Br)cc1 (centres unmarked) [Compound 256]	< 0.99 µM	–	–	–	< 0.99 µM	–	–
CNC(=O)c1c2cc(C3CC3)c(N(CCC3CCOC3)S(C)(=O)=O)cc2nn1-c1ccc(Cl)cc1 (centres unmarked) [Compound 257]	< 0.99 µM	–	–	–	1 to 9.99 µM	–	–
CCN(c1cc2nn(-c3ccc(Br)cc3)c(C(=O)NC)c2cc1C1CC1)S(=O)(=O)C(F)(F)F [Compound 258]	1 to 9.99 µM	–	–	–	1 to 9.99 µM	–	–
